# Tests used:
# Experiment in all cases: KAM-matrix competition in K562 lysate;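 for 0.001 uM KAM: median log10 fold change of treatment over DMSO control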;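 for 0.01 uM KAM: median log10 fold change of treatment over DMSO control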;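 for 0.1 uM KAM: median log10 fold change of treatment over DMSO control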;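 for 1 uM KAM: median log10 fold change of treatment over DMSO control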;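 for 10 uM KAM: median log10 fold change of treatment over DMSO control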
# Format in all cases: binding
# BRD2 = biological target: T1, BRD2 (Homo sapiens, UniProt P25440)
# T1 construct: endogenous in cells; host or cells: K562
# T1 sequence (P25440 whole entry): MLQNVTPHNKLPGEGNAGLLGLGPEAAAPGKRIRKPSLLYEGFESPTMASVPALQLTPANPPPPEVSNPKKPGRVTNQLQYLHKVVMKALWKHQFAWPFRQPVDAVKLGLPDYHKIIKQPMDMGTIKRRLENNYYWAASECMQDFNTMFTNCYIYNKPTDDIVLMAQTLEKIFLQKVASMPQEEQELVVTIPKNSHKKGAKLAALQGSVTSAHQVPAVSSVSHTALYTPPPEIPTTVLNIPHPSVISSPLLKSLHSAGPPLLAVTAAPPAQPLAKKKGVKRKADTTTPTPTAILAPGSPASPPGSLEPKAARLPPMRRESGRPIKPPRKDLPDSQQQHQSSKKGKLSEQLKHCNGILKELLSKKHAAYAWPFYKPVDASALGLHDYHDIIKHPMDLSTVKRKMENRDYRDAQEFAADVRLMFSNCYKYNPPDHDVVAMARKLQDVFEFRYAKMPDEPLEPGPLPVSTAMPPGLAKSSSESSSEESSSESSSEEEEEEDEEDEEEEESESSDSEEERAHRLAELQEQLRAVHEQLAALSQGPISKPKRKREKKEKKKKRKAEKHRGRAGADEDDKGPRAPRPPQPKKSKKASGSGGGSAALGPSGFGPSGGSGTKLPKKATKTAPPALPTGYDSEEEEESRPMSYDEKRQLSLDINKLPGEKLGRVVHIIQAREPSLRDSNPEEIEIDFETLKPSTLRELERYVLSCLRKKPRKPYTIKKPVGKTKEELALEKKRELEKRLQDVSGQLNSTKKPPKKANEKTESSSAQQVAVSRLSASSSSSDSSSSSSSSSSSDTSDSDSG
# Experimental: (§1) Supplement 12953_2017_125_MOESM1_ESM.zip/MS_Supp Info.xlsx, sheet "KAM" | column: 10 uM KAM; 1 uM KAM; 0.1 uM KAM; 0.01 uM KAM; 0.001 uM KAM; RB50
# CDK2 = biological target: T2, CDK2 (Homo sapiens, UniProt P24941)
# T2 construct: endogenous in cells; host or cells: K562
# Experimental: as §1
# IGF1R = biological target: T3, IGF1R (Homo sapiens, UniProt P08069)
# T3 construct: K562 cell pellets were thawed on ice and resuspended in cold Lysis buffer; endogenous in cells; host or cells: K562
# T3 sequence (P08069 741-1367 limits assumed): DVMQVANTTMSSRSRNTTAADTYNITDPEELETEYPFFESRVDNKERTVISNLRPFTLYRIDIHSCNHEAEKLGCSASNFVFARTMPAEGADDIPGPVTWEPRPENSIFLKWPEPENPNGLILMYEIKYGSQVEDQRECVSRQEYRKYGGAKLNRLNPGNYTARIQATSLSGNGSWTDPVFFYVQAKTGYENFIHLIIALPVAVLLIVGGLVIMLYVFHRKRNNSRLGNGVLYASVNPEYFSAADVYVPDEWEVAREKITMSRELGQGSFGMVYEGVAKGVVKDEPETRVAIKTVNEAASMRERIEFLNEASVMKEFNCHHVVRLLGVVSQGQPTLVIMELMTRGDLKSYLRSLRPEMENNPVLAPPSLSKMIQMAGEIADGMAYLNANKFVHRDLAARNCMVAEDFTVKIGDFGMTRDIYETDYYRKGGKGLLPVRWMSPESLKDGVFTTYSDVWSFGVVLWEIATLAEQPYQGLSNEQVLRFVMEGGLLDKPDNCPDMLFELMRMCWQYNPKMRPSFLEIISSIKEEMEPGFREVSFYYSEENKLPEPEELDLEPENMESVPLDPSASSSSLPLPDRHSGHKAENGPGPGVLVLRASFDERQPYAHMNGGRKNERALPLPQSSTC
# T3 sequence (P08069 31-736 partner limits assumed): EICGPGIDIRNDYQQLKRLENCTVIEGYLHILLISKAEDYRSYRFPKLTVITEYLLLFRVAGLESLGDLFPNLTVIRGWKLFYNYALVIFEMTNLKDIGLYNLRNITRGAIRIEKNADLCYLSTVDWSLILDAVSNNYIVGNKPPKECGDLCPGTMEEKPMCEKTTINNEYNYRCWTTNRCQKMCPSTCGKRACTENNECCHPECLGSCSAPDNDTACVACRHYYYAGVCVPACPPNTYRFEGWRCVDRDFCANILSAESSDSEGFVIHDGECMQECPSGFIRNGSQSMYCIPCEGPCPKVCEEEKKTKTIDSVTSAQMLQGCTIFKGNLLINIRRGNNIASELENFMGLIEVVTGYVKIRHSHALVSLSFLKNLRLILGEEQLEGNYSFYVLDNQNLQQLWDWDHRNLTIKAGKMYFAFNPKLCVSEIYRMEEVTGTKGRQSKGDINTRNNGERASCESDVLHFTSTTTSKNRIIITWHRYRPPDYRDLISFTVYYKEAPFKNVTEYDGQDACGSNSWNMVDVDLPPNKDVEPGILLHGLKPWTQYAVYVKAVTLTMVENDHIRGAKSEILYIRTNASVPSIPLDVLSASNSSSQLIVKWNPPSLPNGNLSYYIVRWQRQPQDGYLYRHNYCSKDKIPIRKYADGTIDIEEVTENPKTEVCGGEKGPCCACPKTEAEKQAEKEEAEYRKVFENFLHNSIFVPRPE
# Experimental: as §1
# JAK3 = biological target: T4, JAK3 (Homo sapiens, UniProt P52333);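 for 0.001 uM KAM: median log10 fold change of treatment over DMSO control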;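 for 0.01 uM KAM: median log10 fold change of treatment over DMSO control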;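 for 0.1 uM KAM: median log10 fold change of treatment over DMSO control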;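 for 1 uM KAM: median log10 fold change of treatment over DMSO control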;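 for 10 uM KAM: median log10 fold change of treatment over DMSO control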
# T4 construct: endogenous in cells; host or cells: K562
# T4 sequence (P52333 1-1124): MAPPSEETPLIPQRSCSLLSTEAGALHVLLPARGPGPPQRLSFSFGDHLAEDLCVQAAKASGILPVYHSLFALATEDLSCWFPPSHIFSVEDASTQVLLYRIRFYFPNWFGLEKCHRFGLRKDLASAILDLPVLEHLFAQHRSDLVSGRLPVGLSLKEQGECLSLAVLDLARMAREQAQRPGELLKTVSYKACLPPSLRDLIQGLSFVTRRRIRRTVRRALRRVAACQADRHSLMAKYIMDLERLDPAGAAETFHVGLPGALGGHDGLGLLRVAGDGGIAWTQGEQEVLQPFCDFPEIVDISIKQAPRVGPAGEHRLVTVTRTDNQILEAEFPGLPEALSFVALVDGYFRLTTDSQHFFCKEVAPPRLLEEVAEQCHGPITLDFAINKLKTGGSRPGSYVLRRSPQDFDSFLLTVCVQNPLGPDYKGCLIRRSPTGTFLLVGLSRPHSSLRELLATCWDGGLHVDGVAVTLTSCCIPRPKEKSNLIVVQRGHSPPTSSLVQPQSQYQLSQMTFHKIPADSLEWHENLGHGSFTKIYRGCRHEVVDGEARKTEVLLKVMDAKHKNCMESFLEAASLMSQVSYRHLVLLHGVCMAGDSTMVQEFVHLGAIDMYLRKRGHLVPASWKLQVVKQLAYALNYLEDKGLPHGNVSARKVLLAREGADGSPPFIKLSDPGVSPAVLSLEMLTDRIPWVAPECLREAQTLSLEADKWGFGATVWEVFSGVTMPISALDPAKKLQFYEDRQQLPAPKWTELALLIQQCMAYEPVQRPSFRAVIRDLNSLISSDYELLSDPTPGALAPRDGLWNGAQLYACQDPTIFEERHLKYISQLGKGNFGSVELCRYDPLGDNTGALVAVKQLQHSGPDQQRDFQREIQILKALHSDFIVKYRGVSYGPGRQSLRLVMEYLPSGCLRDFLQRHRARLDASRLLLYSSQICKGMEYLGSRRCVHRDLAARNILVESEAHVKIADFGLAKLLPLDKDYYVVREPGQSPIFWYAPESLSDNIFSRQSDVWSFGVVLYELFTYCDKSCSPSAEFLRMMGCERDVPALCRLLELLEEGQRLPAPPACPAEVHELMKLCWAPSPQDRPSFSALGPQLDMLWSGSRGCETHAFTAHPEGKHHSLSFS
# Experimental: as §1
# MAP4K3 = biological target: T5, MAP4K3 (Homo sapiens, UniProt Q8IVH8)
# T5 construct: endogenous in cells; host or cells: K562
# T5 sequence (Q8IVH8 1-894): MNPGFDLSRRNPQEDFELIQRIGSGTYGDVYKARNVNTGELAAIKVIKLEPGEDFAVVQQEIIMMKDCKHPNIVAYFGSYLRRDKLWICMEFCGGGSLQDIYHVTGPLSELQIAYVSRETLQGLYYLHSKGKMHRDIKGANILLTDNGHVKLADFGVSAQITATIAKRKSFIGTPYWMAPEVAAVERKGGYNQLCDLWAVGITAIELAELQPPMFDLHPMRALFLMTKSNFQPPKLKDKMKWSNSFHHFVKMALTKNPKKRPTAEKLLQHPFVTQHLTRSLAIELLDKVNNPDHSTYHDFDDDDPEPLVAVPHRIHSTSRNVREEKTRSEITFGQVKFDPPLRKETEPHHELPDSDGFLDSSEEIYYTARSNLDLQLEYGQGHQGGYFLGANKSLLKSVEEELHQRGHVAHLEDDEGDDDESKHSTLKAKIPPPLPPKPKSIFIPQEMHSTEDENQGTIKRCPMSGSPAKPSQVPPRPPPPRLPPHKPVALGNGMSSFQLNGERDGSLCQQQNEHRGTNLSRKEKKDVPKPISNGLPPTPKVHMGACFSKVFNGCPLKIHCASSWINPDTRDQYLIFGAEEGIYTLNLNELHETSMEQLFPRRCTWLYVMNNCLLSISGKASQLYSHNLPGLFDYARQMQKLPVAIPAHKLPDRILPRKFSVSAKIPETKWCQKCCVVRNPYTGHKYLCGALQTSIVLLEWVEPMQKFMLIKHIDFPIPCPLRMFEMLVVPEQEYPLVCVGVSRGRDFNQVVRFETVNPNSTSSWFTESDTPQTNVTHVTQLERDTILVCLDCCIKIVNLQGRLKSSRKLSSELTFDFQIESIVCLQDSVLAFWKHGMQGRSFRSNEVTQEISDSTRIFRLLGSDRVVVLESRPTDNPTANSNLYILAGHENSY
# Experimental: as §1
# PRKACG = biological target: T6, PRKACG (Homo sapiens, UniProt P22612);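 for 0.001 uM KAM: median log10 fold change of treatment over DMSO control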;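 for 0.01 uM KAM: median log10 fold change of treatment over DMSO control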;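 for 0.1 uM KAM: median log10 fold change of treatment over DMSO control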;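 for 1 uM KAM: median log10 fold change of treatment over DMSO control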;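 for 10 uM KAM: median log10 fold change of treatment over DMSO control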
# T6 construct: endogenous in cells; host or cells: K562
# T6 sequence (P22612 whole entry): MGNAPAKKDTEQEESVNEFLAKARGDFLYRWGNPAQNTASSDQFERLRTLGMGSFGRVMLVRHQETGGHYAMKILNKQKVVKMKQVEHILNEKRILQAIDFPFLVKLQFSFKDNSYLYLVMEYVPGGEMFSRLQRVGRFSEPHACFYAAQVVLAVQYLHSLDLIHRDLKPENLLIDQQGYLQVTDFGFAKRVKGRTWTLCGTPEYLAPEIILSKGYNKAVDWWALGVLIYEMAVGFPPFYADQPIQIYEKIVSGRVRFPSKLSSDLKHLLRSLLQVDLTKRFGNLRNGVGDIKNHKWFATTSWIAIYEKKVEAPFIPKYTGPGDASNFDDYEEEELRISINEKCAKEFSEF
# Experimental: as §1
# [1] = read-out: RB50 (the source's name)
# [2] = KAM 0.001-10 uM, read-out: RB50 (the source's name)
smiles,measurement,setting,value
N#CCc1ccc(Nc2nc(NCCCN)cc(Nc3cc(C4CC4)[nH]n3)n2)cc1 [KAM],median Log10 fold change,BRD2; 0.001 uM KAM,-0.02696
same,median Log10 fold change,BRD2; 0.01 uM KAM,-0.0008346
same,median Log10 fold change,BRD2; 0.1 uM KAM,-0.172
same,median Log10 fold change,BRD2; 1 uM KAM,-0.286
same,median Log10 fold change,BRD2; 10 uM KAM,-0.3099
same,IC50,BRD2; [1],1890 nM
same,median Log10 fold change,CDK2; 0.001 uM KAM,-0.01597
same,median Log10 fold change,CDK2; 0.01 uM KAM,-0.009383
same,median Log10 fold change,CDK2; 0.1 uM KAM,-0.2687
same,median Log10 fold change,CDK2; 1 uM KAM,-0.5288
same,median Log10 fold change,CDK2; 10 uM KAM,-0.6805
same,IC50,CDK2; [1],177 nM
same,median Log10 fold change,IGF1R; 0.001 uM KAM,-0.01905
same,median Log10 fold change,IGF1R; 0.01 uM KAM,-0.03637
same,median Log10 fold change,IGF1R; 0.1 uM KAM,-0.1832
same,median Log10 fold change,IGF1R; 1 uM KAM,-0.3556
same,median Log10 fold change,IGF1R; 10 uM KAM,-0.4489
same,IC50,IGF1R; [1],696 nM
same,IC50,JAK3; [2],> 10000 nM
same,0.001 uM KAM,JAK3; relative to 0 uM KAM = 0,-0.04271
same,0.01 uM KAM,JAK3; relative to 0 uM KAM = 0,-0.0544
same,0.1 uM KAM,JAK3; relative to 0 uM KAM = 0,-0.1188
same,1 uM KAM,JAK3; relative to 0 uM KAM = 0,-0.2952
same,10 uM KAM,JAK3; relative to 0 uM KAM = 0,-0.1976
same,median Log10 fold change,MAP4K3; 0.001 uM KAM,-0.00532
same,median Log10 fold change,MAP4K3; 0.01 uM KAM,-0.01342
same,median Log10 fold change,MAP4K3; 0.1 uM KAM,-0.1612
same,median Log10 fold change,MAP4K3; 1 uM KAM,-0.436
same,median Log10 fold change,MAP4K3; 10 uM KAM,-0.5629
same,IC50,MAP4K3; [1],472 nM
same,IC50,PRKACG; [2],> 10000 nM
same,0.001 uM KAM,PRKACG; relative to 0 uM KAM = 0,-0.03855
same,0.01 uM KAM,PRKACG; relative to 0 uM KAM = 0,0.1471
same,0.1 uM KAM,PRKACG; relative to 0 uM KAM = 0,0.178
same,1 uM KAM,PRKACG; relative to 0 uM KAM = 0,0.2462
same,10 uM KAM,PRKACG; relative to 0 uM KAM = 0,0.202

# From paper PMC5513037, “Examining the influence of specificity ligands and ATP-competitive ligands on the overall effectiveness of bivalent kinase inhibitors” (Proteome Science, 2017)
